Broadly, the inhibition is the change of the read-out against control, counted positive when it falls. The term IC50 denotes the concentration needed to halve the response being measured. Read a low IC50 as higher potency.

Data on 8 compounds can be found in US7183309B2, “Indole derivatives useful as progesterone receptor modulators” (Janssen Pharmaceutica N.V., priority 2004, dated 2007).

This experiment concerns T47D human breast cancer cells. Put plainly: In Vitro Testing-T47 D Assay (alkaline phosphatase assay). Type of experiment: cell-based. The following applies: alkaline phosphatase luminescence readout after 24 h. On the procedure: In Vitro Testing-T47 D Assay
T47D human breast cancer cells are grown in RPMI medium without phenol red (Invitrogen) containing 10% (v/v) heat-inactivated fetal bovine serum (FBS; Hyclone), 1% (v/v) penicillin-streptomycin (Invitrogen), 1% (w/v) glutamine (Invitrogen), and […] (Sigma). Incubation conditions are 37° C. in a humidified 5% (v/v) carbon dioxide environment. For assay, the cells are plated in 96-well tissue culture plates at 10,000 cells per well in assay medium [RPMI medium without phenol red (Invitrogen) containing 5% (v/v) charcoal-treated FBS (Hyclone) and 1% (v/v) penicillin-streptomycin (Invitrogen)]. Two days later, the medium is decanted and the compounds are added in a final concentration of 0.1% (v/v) dimethyl sulfoxide in fresh assay medium. Twenty-four hours later, an alkaline phosphatase assay is performed using a SEAP kit (BD Biosciences Clontech, Palo Alto, Calif.). Briefly, the medium is decanted and the cells are fixed for 30 minutes at room temperature with 5% (v/v) formalin (Sigma). The cells are washed once with room temperature Hank's buffered saline solution (Invitrogen). Equal volumes (0.05 mL) of 1× Dilution Buffer, Assay Buffer and 1:20 substrate/enhancer mixture are added. After 1-hour incubation at room temperature in the dark, the lysate is transferred to a white 96-well plate (Dynex) and luminescence is read using a LuminoSkan Ascent (Thermo Electron, Woburn, Mass.).

Turning to `CC(C)(O)c1[nH]c2cc(C(F)(F)F)c([N+](=O)[O-])cc2c1Sc1ccccc1` [Example 1, 2-(5-Nitro-3-phenylsulfanyl-6-trifluoromethyl-1H-indol-2-yl)-propan-2-ol], for the setting “Homo sapiens”, the inhibition at 3 µM was 99% and the concentration for half-maximal inhibition (IC50) was found to be 62 nM.
Consider `C=C(C)c1[nH]c2cc(C(F)(F)F)c([N+](=O)[O-])cc2c1Sc1ccccc1` [Example 2, 2-Isopropenyl-5-nitro-3-phenylsulfanyl-6-trifluoromethyl-1H-indole], for which the IC50 (Homo sapiens, T47D, 24 h) was above 10000 nM.
For the compound `O=[N+]([O-])c1ccc(Sc2c(-c3ccccc3)[nH]c3cc(Cl)c(F)cc23)cc1` [Example 3, 6-Chloro-5-fluoro-3-(4-nitro-phenylsulfanyl)-2-phenyl-1H-indole], under “Homo sapiens, T47D, 24 h”, the inhibition at 3 µM was determined as 88% and it took 1400 nM to reach half-maximal inhibition (IC50).
In the case of `CC(C)(O)c1[nH]c2cc(C(F)(F)F)c(C#N)cc2c1Sc1cccc([N+](=O)[O-])c1` [Example 4, 2-(1-Hydroxy-1-methyl-ethyl)-3-(3-nitro-phenylsulfanyl)-6-trifluoromethyl-1H-indole-5-carbonitrile], where the note is “Homo sapiens”, the inhibition at 3 µM worked out at 69% and the half-maximal inhibitory concentration (IC50) was determined as 2190 nM.
On to `Fc1cc2c(Sc3ccccc3)c(-c3ccccc3)[nH]c2cc1Cl` [Example 5, 6-Chloro-5-fluoro-2-phenyl-3-phenylsulfanyl-1H-indole], for which, for the setting “Homo sapiens, T47D, 24 h”, the inhibition at 3 µM was determined as 103% and the midpoint of inhibition, the IC50, lay at 1760 nM.
For `O=[N+]([O-])c1cccc(Sc2c(-c3ccccc3)[nH]c3cc(Cl)c(F)cc23)c1` [Example 6, 6-Chloro-5-fluoro-3-(3-nitro-phenylsulfanyl)-2-phenyl-1H-indole], under “Homo sapiens, T47D, 24 h”, the inhibition at 3 µM is 99% and the half-maximal inhibitory concentration (IC50) was determined as 1900 nM.
Consider `O=[N+]([O-])c1cccc(S(=O)(=O)c2c(-c3ccccc3)[nH]c3cc(Cl)c(F)cc23)c1` [Example 7, 6-Chloro-5-fluoro-3-(3-nitro-benzenesulfonyl)-2-phenyl-1H-indole], for which the “inh. @ 3 uM” value turned out to be 55%. Further, under “Homo sapiens, T47D, 24 h”, the half-inhibitory concentration (IC50) came out at 3620 nM.
On to `O=[N+]([O-])c1cccc(S(=O)(=O)c2c(-c3ccccc3)[nH]c3cc(Cl)c(F)cc23)c1` [Example 8, 6-Chloro-5-fluoro-3-(3-nitro-benzenesulfonyl)-2-phenyl-1H-indole], for which the “inh. @ 3 uM” value is listed as 82% and the IC50 turned out to be 3180 nM.
